Laboratory results as given in patent publication US7749711B2, “Methods of assessing endothelial dysfunction using acute transient responses following fat administration” (priority 2003, dated 2010).

Tested on: patients with documented CAD
Test: Plasma LDL levels in CAD patients on simvastatin therapy
Format: in vivo, human
Conditions: simvastatin 40 mg/day, after 4 months on therapy, 13 CAD patients, data not shown
From the text: For all studies, patients were recruited and screened for coronary artery disease (CAD) according to the following criteria.
Study Population: Human subjects with active vascular disease were recruited for this aspect of the study. They were screened by a history and physical exam, measurements of lipid profile and routine blood chemistries to include for example, CBC, TSH, free T4, ALT, AST, CPK, CRP, BUN, creatinine, glucose, hemoglobin A1c (if diabetic), urinalysis for protein and glucose. First preference was given to subjects with coronary artery disease. Exclusions included the use of lipid lowering or high dose angiotensin II—altering (or blocking) drugs within three months of the study. For the purposes of the following example, because of the limitations in finding subjects with coronary artery disease that are not on lipid lowering drugs or other vascular active drugs, subjects were also accepted with high coronary disease risk ratings as determined by Framingham Risk Assessment including both hard and soft risk predictors. […]
All lipid, lipoprotein, and apolipoprotein measurements were performed in the Emory Lipid Research Laboratory, a participant in the NHLBI/CDC Lipid Standardization Program. MDA proteins were measured in the Emory Lipid Research Laboratory using a commercially available kit. […]

With CCC(C)(C)C(=O)O[C@H]1C[C@@H](C)C=C2C=C[C@H](C)[C@H](CC[C@@H]3C[C@@H](O)CC(=O)O3)[C@H]21 [simvastatin] as the compound, how does the “LDL levels reduced by an average of” value read?
Its value is 32.1%.
